Here are results for two compounds from ChEMBL document CHEMBL2074172, “Possible involvement of multiple P-glycoprotein-mediated efflux systems in the transport of verapamil and other organic cations across rat intestine” (Pharm Res, 1995).

For this assay, the target named is Multidrug resistance protein 1a (Rattus norvegicus) (UniProt Q6PSM0). Put plainly: TP_TRANSPORTER: serosal to mucosal transport in SD rat intestinal segment. It counts as functional. As to conditions: Sprague-Dawley, Intestine.
Sequence of Multidrug resistance protein 1a (Rattus norvegicus) (Q6PSM0 as listed by the source): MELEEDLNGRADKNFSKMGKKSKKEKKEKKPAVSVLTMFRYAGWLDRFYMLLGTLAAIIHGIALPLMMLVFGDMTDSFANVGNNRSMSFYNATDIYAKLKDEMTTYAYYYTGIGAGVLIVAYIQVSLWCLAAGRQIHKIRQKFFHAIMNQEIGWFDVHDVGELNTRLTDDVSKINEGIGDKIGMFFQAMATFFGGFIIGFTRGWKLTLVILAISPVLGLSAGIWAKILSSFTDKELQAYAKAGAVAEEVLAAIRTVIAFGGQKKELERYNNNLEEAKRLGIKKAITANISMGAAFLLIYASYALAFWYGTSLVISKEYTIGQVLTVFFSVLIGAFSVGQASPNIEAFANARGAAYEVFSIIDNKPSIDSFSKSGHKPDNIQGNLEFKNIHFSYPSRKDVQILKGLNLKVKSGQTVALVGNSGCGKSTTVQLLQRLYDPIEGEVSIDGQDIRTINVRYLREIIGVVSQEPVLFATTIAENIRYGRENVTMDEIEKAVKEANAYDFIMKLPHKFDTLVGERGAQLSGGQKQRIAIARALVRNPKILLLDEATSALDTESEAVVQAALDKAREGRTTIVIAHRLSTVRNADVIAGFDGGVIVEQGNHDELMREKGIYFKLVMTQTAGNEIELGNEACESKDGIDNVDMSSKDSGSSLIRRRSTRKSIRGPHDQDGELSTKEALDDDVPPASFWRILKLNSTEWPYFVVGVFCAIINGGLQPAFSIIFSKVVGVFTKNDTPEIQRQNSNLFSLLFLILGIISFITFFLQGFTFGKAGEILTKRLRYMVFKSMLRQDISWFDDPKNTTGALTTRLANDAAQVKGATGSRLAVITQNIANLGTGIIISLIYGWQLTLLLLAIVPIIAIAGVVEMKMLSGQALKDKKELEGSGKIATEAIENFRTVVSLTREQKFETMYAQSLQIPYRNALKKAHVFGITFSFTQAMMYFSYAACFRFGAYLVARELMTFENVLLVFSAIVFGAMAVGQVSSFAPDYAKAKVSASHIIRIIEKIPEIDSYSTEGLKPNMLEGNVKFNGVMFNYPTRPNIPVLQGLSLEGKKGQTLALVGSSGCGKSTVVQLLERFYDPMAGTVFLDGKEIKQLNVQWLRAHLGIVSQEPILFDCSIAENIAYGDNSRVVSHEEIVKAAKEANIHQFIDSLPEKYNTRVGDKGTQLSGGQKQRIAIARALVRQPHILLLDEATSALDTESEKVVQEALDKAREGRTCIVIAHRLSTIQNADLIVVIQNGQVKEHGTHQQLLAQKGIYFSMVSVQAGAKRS

As to `CC(C)[N+](C)(CCOC(=O)C1c2ccccc2Oc2ccccc21)C(C)C`, the Activity entry was “substrate [+]”.

Turning to `COc1ccc(CCN(C)CCCC(C#N)(c2ccc(OC)c(OC)c2)C(C)C)cc1OC` (configuration not stated), the Activity entry is “substrate [+]”.
